{"source": "patent US5122520A", "about": "“Acid addition salts of amidated taurine or glycine, their preparation and use” (Sandoz Ltd., priority 1988, dated 1992)", "assay": "Bioavailability of salmon calcitonin after nasal application (plasma concentration by radio-immuno-assay)", "design": "species or system rhesus monkeys", "conditions": "rhesus monkey, in vivo", "procedure": "The drug compound concentration was measured in the plasma by radio-immuno-assay. The salmon calcitonin determinations were carried out up to 6 hours after application.", "data": [{"substance": "salmon calcitonin", "values": [{"measurement": "bioavailability as % of the value measured with the best known resorption promoter", "result": 67, "unit": "%"}, {"measurement": "bioavailability as % of the values found after application without resorption promoter", "result": "> 400", "unit": "%"}]}]}
